The numbers were not newly measured in patent publication US12178826B2, “Formulations for the delivery of autophagy stimulating trehalose” (priority 2017, dated 2024), which cites them from elsewhere.

The structures appear in SMILES notation.

In data set [1] the test system is mutant SOD1 transgenic mice. Conditions: Trehalose administration.
The conditions of data set [2]: after inhalation; general statement, no test described.

With `OC[C@H]1O[C@H](O[C@H]2O[C@H](CO)[C@@H](O)[C@H](O)[C@H]2O)[C@H](O)[C@@H](O)[C@@H]1O` [Trehalose, (2R,3S,4S,5R,6R)-2-(Hydroxymethyl)-6-[(2R,3R,4S,5S,6R)-3,4,5-trihydroxy-6-(hydroxymethyl)oxan-2-yl]oxyoxane-3,4,5-triol], in data set [1], the “accumulation of SOD1 aggregates” value is “decreased accumulation of SOD1 aggregates”, the life span result is “significantly prolonged life span” and the motoneuron survival result is reported as “enhanced motoneuron survival”. Moreover, in the data set with NSC34 motoneuron cells, the “mutant SOD1 degradation by autophagy” value is on record as “led to mutant SOD1 degradation by autophagy”. In data set [2], the “time to absorption from the lungs into the bloodstream” value is no more than 2 h.
